Reference: patent US4533747A, “Leukotriene antagonists intermediates” (SmithKline Beckman Corporation, priority 1983, dated 1985)

biological target: T1, leukotriene (LTD4) induced contraction of guinea pig tracheal tissues (Cavia porcellus, UniProt Q2NNR5); assay: Inhibition of LTD4-induced contraction of guinea pig tracheal tissues in vitro; format: cell-based, Guinea pig (adult male albino Hartley strain); conditions: LTD4 cumulative concentration-response; guinea pig tracheal spiral strips; 30 min pretreatment with test compound; meclofenamic acid 1 μM; EC30 relative to carbachol 10 μM; read-out: pA2 (converted)
T1 construct: Guinea pig (adult male albino Hartley strain) tracheal spiral strips; from tissue; host or cells: guinea pig (adult male albino Hartley strain) tracheal spiral strips
T1 sequence (Q2NNR5 1-340): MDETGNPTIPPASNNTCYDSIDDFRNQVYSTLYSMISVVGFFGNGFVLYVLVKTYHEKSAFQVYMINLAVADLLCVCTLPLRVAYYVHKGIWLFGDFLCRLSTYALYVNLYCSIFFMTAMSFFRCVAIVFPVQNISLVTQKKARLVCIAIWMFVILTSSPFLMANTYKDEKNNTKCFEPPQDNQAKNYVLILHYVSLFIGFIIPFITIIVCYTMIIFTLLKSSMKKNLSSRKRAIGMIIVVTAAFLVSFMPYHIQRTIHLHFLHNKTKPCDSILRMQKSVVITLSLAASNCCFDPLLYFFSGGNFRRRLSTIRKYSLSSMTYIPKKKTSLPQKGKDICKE
Protocol: The leukotriene antagonist activity of the compounds of formula (II) is measured by the ability of the compound to inhibit leukotriene induced contraction of guinea pig tracheal tissues in vitro. The following methodology was employed:
In vitro: Guinea pig (adult male albino Hartley strain) tracheal spiral strips of approximate dimensions 2 to 3 mm cross-sectional width and 3.5 cm length were bathed in modified Krebs buffer in jacketed 10 ml tissue bath and continously aerated with 95% O2 /5% CO2. The tissues were connected via silk suture to force displacement transducers for recording isometric tension. The tissues were equilibrated for 1 hr., pretreated for 15 minutes with meclofenamic acid (1 μM) to remove intrinsic prostaglandin responses, and then pretreated for an additional 30 minutes with either the test compound or vehicle control. A cumulative concentration-response curve for LTD4 on triplicate tissues was generated by successive increases in the bath concentration of the LTD4. In order to minimize intertissue variability, the contractions elicited by LTD4 were standardized as a percentage of the maximum response obtained to a reference agonist, carbachol (10 μM).
Calculations: The averages of the triplicate LTD4 concentration-response curves both in the presence and absence of the test compound were plotted on log graph paper. The concentration of LTD4 needed to elicit 30% of the contraction elicited by carbachol was measured and defined as the EC30. The pA2 value for the test compound as determined by the following equations: [formula]

Row | Kb | Compound
1 | 5010 nM | CCCCCCCCCCCC/C=C\C(CO)SCCC(=O)O (stereo not drawn) [2-[(2-Carboxyethyl)thio]-3(Z)-hexadecen-1-ol]
2 | 1000 nM | CCCCCCCCCCCC/C=C\C(SCCC(=O)O)C(=O)O (stereo not drawn) [2-[(2-Carboxyethyl)thio]-3(Z)-hexadecenoic acid]
3 | 794 nM | CCCCCCCCCCCC/C=C\C(SCCC(=O)O)C(O)CC(=O)O (stereo not drawn) [3-Hydroxy-4-[(2-carboxyethyl)thio]-5(Z)-octadecenoic acid]
